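Five concentrations, 48 hours, 96-well plates. GI50 marks 50% less growth.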 Active and inactive are the calls of the source. No stated cut-off is given here; in the data, active = GI50 up to about 1.1 µM and inactive = higher.
Assays:
Experiment in all cases: growth of human tumour cells (NCI), 48 h
SW-620 = test system: SW-620
SR = test system: SR
Hs-578T = test system: Hs-578T
TK-10 = test system: TK-10
BT-549 = test system: BT-549
ACHN = test system: ACHN
U-251 = test system: U-251
DU-145 = test system: DU-145
Malme-3M = test system: Malme-3M
CAKI-1 = test system: CAKI-1
NCI-H460 = test system: NCI-H460
A498 = test system: A498
KM12 = test system: KM12
OVCAR-8 = test system: OVCAR-8
OVCAR-4 = test system: OVCAR-4
RPMI-8226 = test system: RPMI-8226
SF-539 = test system: SF-539
NCI/ADR-RES = test system: NCI/ADR-RES
HCT-15 = test system: HCT-15
DMS-114 = test system: DMS-114

| Compound | GI50 (SW-620) | GI50 (SR) | GI50 (Hs-578T) | GI50 (TK-10) | GI50 (BT-549) | GI50 (ACHN) | GI50 (U-251) | GI50 (DU-145) | GI50 (Malme-3M) | GI50 (CAKI-1) | GI50 (NCI-H460) | GI50 (A498) | GI50 (KM12) | GI50 (OVCAR-8) | GI50 (OVCAR-4) | GI50 (RPMI-8226) | GI50 (SF-539) | GI50 (NCI/ADR-RES) | GI50 (HCT-15) [µM] | GI50 (DMS-114) |
| --- | --- | --- | --- | --- | --- | --- | --- | --- | --- | --- | --- | --- | --- | --- | --- | --- | --- | --- | --- | --- |
| COc1cccc(-c2cc(O)c3cc(N4CCN(C)CC4)ccc3n2)c1 | 0.522 µM (active) | 0.42 µM (active) | 0.774 µM (active) | 9.64 µM (inactive) | 4.46 µM (inactive) | 5.25 µM (inactive) | 0.785 µM (active) | 3.21 µM (inactive) | 0.641 µM (active) | 2.66 µM (inactive) | 2.99 µM (inactive) | 1.06 µM (active) | 1.91 µM (inactive) | 2.01 µM (inactive) | 5.28 µM (inactive) | 3.35 µM (inactive) | 0.557 µM (active) | 1.47 µM (inactive) | 1.75 | – |
| Cc1cc2c(cc1C)NC1=C(O)C(c3c[nH]c4ccc(COc5ccccc5)cc34)OC1=N2 (configuration not stated) | > 100 µM (inactive) | 65.9 µM (inactive) | 36 µM (inactive) | 53.5 µM (inactive) | > 100 µM (inactive) | 45.7 µM (inactive) | 34.4 µM (inactive) | > 100 µM (inactive) | > 100 µM (inactive) | > 100 µM (inactive) | > 100 µM (inactive) | 32 µM (inactive) | > 100 µM (inactive) | 43.9 µM (inactive) | > 100 µM (inactive) | > 100 µM (inactive) | 27.4 µM (inactive) | > 100 µM (inactive) | > 100 | – |
| CC12CCC3c4ccc(O)cc4CCC3C1C/C(=N\O)C2O (configuration not stated) | > 100 µM (inactive) | > 100 µM (inactive) | 99.1 µM (inactive) | 45.4 µM (inactive) | > 100 µM (inactive) | > 100 µM (inactive) | > 100 µM (inactive) | > 100 µM (inactive) | > 100 µM (inactive) | > 100 µM (inactive) | > 100 µM (inactive) | > 100 µM (inactive) | 99.5 µM (inactive) | > 100 µM (inactive) | > 100 µM (inactive) | 85.1 µM (inactive) | 85.1 µM (inactive) | > 100 µM (inactive) | > 100 | – |
| Cn1c(=S)c2nc(SCc3cccnc3)[nH]c2n(C)c1=O | > 100 µM (inactive) | > 100 µM (inactive) | 92 µM (inactive) | > 100 µM (inactive) | > 100 µM (inactive) | > 100 µM (inactive) | > 100 µM (inactive) | > 100 µM (inactive) | 93.8 µM (inactive) | > 100 µM (inactive) | > 100 µM (inactive) | > 100 µM (inactive) | > 100 µM (inactive) | > 100 µM (inactive) | > 100 µM (inactive) | > 100 µM (inactive) | > 100 µM (inactive) | > 100 µM (inactive) | > 100 | – |
| O=C(COC(=O)c1ccccc1)c1ccc(Br)cc1 | 6 µM (inactive) | 2.15 µM (inactive) | 14.3 µM (inactive) | 2.58 µM (inactive) | 6.14 µM (inactive) | 19.9 µM (inactive) | 11 µM (inactive) | 19.5 µM (inactive) | 12.2 µM (inactive) | 1.47 µM (inactive) | 18.5 µM (inactive) | 15.8 µM (inactive) | 15.7 µM (inactive) | 12.5 µM (inactive) | – | 3.39 µM (inactive) | 15.1 µM (inactive) | 21 µM (inactive) | 3.35 | – |
| COC(=O)c1ccccc1CC(Cc1ccccc1)C(=O)OC (configuration not stated) | > 100 µM (inactive) | 27 µM (inactive) | 56 µM (inactive) | 99.1 µM (inactive) | > 100 µM (inactive) | > 100 µM (inactive) | 30.8 µM (inactive) | > 100 µM (inactive) | 64.4 µM (inactive) | 83.4 µM (inactive) | > 100 µM (inactive) | 92.5 µM (inactive) | 87.3 µM (inactive) | 87.1 µM (inactive) | 96.8 µM (inactive) | 27.6 µM (inactive) | > 100 µM (inactive) | 42.5 µM (inactive) | 31.3 | – |
| COC(=O)CC1(O)C(C=C(C)C)C(C(=O)OC)C(=O)C(C(=O)OC)C1C(=O)OC (configuration not stated) | > 100 µM (inactive) | > 100 µM (inactive) | > 100 µM (inactive) | > 100 µM (inactive) | 11.4 µM (inactive) | > 100 µM (inactive) | > 100 µM (inactive) | > 100 µM (inactive) | > 100 µM (inactive) | > 100 µM (inactive) | > 100 µM (inactive) | > 100 µM (inactive) | > 100 µM (inactive) | > 100 µM (inactive) | > 100 µM (inactive) | > 100 µM (inactive) | > 100 µM (inactive) | 38.5 µM (inactive) | > 100 | – |
| CC(=O)NS(=O)(=O)c1ccc(NC(=O)COC(=O)c2cccc3c(=O)c4ccccc4[nH]c23)cc1 | > 100 µM (inactive) | – | – | > 100 µM (inactive) | – | > 100 µM (inactive) | > 100 µM (inactive) | – | > 100 µM (inactive) | – | > 100 µM (inactive) | – | > 100 µM (inactive) | > 100 µM (inactive) | – | > 100 µM (inactive) | > 100 µM (inactive) | – | > 100 | > 100 µM (inactive) |
| COC(=O)C1=C(C(=O)OC)C23C=CC=CC24C(C(=O)OC)=C(C(=O)OC)C4C1C3 (configuration not stated) | > 100 µM (inactive) | – | – | > 100 µM (inactive) | – | > 100 µM (inactive) | > 100 µM (inactive) | – | > 100 µM (inactive) | – | > 100 µM (inactive) | – | > 100 µM (inactive) | > 100 µM (inactive) | > 100 µM (inactive) | 51.2 µM (inactive) | > 100 µM (inactive) | – | 59.8 | 88.7 µM (inactive) |
| CCOC(=O)c1cc(C2CCN(Cc3ccccc3)C2=O)c(C(=O)C(=[N+]=[N-])C(C)=O)[nH]1 (configuration not stated) | > 100 µM (inactive) | > 100 µM (inactive) | > 100 µM (inactive) | – | > 100 µM (inactive) | – | > 100 µM (inactive) | > 100 µM (inactive) | > 100 µM (inactive) | > 100 µM (inactive) | > 100 µM (inactive) | > 100 µM (inactive) | > 100 µM (inactive) | > 100 µM (inactive) | > 100 µM (inactive) | > 100 µM (inactive) | > 100 µM (inactive) | > 100 µM (inactive) | > 100 | – |
| CCCCNC(=O)c1cc(S(=O)(=O)n2ccnc2O)c(SC)cc1Cl | > 100 µM (inactive) | > 100 µM (inactive) | > 100 µM (inactive) | > 100 µM (inactive) | > 100 µM (inactive) | > 100 µM (inactive) | > 100 µM (inactive) | > 100 µM (inactive) | > 100 µM (inactive) | > 100 µM (inactive) | > 100 µM (inactive) | 26.1 µM (inactive) | > 100 µM (inactive) | > 100 µM (inactive) | > 100 µM (inactive) | > 100 µM (inactive) | > 100 µM (inactive) | > 100 µM (inactive) | > 100 | – |
| O=P1(Cc2ccccc2)c2ccccc2-c2ccccc21 | 3.61 µM (inactive) | 3.89 µM (inactive) | 7.05 µM (inactive) | 5 µM (inactive) | 2.9 µM (inactive) | 11.2 µM (inactive) | 3.88 µM (inactive) | 7.38 µM (inactive) | 2.15 µM (inactive) | 21.7 µM (inactive) | 4.04 µM (inactive) | 7.85 µM (inactive) | 1.08 µM (active) | 4.4 µM (inactive) | 11 µM (inactive) | 0.65 µM (active) | 6.21 µM (inactive) | > 100 µM (inactive) | 37.2 | – |
| CC(=O)c1ccccc1NP(=O)(c1ccccc1)c1ccccc1 | 97.7 µM (inactive) | 60 µM (inactive) | 53.3 µM (inactive) | 40.8 µM (inactive) | > 100 µM (inactive) | > 100 µM (inactive) | 96.6 µM (inactive) | > 100 µM (inactive) | 34 µM (inactive) | 30.8 µM (inactive) | 43.6 µM (inactive) | 31.4 µM (inactive) | 50.7 µM (inactive) | > 100 µM (inactive) | 27.5 µM (inactive) | 16.6 µM (inactive) | 70.3 µM (inactive) | 14.1 µM (inactive) | 66.4 | – |
| Cc1n[nH]c(=O)n1/N=C/c1cccnc1 | > 100 µM (inactive) | > 100 µM (inactive) | > 100 µM (inactive) | > 100 µM (inactive) | > 100 µM (inactive) | > 100 µM (inactive) | > 100 µM (inactive) | > 100 µM (inactive) | > 100 µM (inactive) | > 100 µM (inactive) | > 100 µM (inactive) | > 100 µM (inactive) | > 100 µM (inactive) | > 100 µM (inactive) | > 100 µM (inactive) | > 100 µM (inactive) | > 100 µM (inactive) | > 100 µM (inactive) | > 100 | – |
| N/C(S)=N/N=C/c1cc(CN2CCOCC2)c(N)cn1 | 62.1 µM (inactive) | 44.4 µM (inactive) | > 100 µM (inactive) | 43.4 µM (inactive) | 78.5 µM (inactive) | 14.1 µM (inactive) | 56.8 µM (inactive) | 28.6 µM (inactive) | 31.3 µM (inactive) | 45.7 µM (inactive) | 38.4 µM (inactive) | 37 µM (inactive) | 23.6 µM (inactive) | 18.5 µM (inactive) | – | 79.8 µM (inactive) | 27.5 µM (inactive) | 31 µM (inactive) | 15 | – |
| O=C(O)CCc1nc(-c2ccccc2)c(-c2ccccc2)o1 [OXAPROZIN] | > 100 µM (inactive) | > 100 µM (inactive) | > 100 µM (inactive) | > 100 µM (inactive) | > 100 µM (inactive) | > 100 µM (inactive) | > 100 µM (inactive) | > 100 µM (inactive) | > 100 µM (inactive) | > 100 µM (inactive) | > 100 µM (inactive) | > 100 µM (inactive) | > 100 µM (inactive) | > 100 µM (inactive) | > 100 µM (inactive) | 74.8 µM (inactive) | > 100 µM (inactive) | > 100 µM (inactive) | > 100 | – |

Source: ChEMBL document CHEMBL1201862, “PubChem BioAssay data set” (2004)
